Literature values, collected in patent US20210290639A1, “IMMEDIATE RELEASE FORMULATION OF A TRIPLE COMBINATION OF ACTIVE PHARMACEUTICAL INGREDIENTS USEFUL IN THE TREATMENT OF POLYCYSTIC OVARY SYNDROME” (priority 2018, published 2021).

Conditions: low solubility and high permeability

Structure (SMILES)	BCS class
CCc1ccc(CCOc2ccc(CC3SC(=O)NC3=O)cc2)nc1 (racemic) [pioglitazone, ((±)-5-[p-[2-(5-Ethyl-2-pyridyl)ethoxy]benzyl]-2,4-thiazolidinedione]	Class II
CC(=O)S[C@@H]1CC2=CC(=O)CC[C@]2(C)[C@H]2CC[C@@]3(C)[C@@H](CC[C@@]34CCC(=O)O4)[C@H]12 [spironolactone, 7α-Acetylthio-3-oxo-17α-pregn-4-ene-21,17β-carbolactone]	Class II
